≈ marks a conversion by molar mass, not a printed value. Like-named read-outs stand apart in the source and are kept apart here.
Legend:
Candida albicans = assay: Densitometric measurement of the propagation of yeast fungi (BIOSCREEN C), minimal inhibitory concentration; assay type: cell-based; conditions: for MIC: Candida albicans
Experimental: Densitometric measurement of the propagation of yeast fungi
A microbiological analyzer called BIOSCREEN C (LAB-SYSTEMS, Helsinki, Finland) was used to the measurements. From the test compounds first a stock solution of a concentration of 50 mg/ml, then in 15 steps a bisecting dilution series was prepared with dimethyl sulfoxide. From every dilution step 10 μl each was introduced into the cells of the analysator. Then 390 μl of an aqueous nutrient solution was piperred into the cells. In the mixtures obtained the cells of the yeasts, e.g. Candida albicans, cans, were suspended in such an amount that the optical density of the suspension obtained be about 0.1. Young cultures, shaken at 30° C. for about 12 hours, were used in the preparation of the suspensions. The composition of the aqueous nutrient solution was as follows: 1% by weight of glucose, 0.5% by weight of yeast extract (a product of the firm OXOID Ltd, Great Britain, under the catalogue No. L21) and 0.5% by weight of nutrient broth (a product of the firm OXOID Ltd, Great Britain, under the catalogue No. CM 1/2). The concentration of the compounds to be tested in the cells corresponded to 1250, 625, 312, 156, 78, 39, 19, 9, 4, 2, 1, 0.6, 0.3, 0.15 and 0.07 μg/ml, resp. The densitometric measurement of the cultures was carried out during an incubation at 37° C. for 30 hours. The change in the turbidity of the culture, which can be followed through optical measurement, is proportional to the propagation of the yeast fungi.
As the minimal inhibitory concentration (MIC) of this test that minimal concentration of the tested compound was determined which was able to prevent totally the propagation of the fungus.

[1] = test system: other Candida species and other pathogenic fungi; assay: in vitro tests, full inhibition of other Candida species and other pathogenic fungi; assay type: cell-based; conditions: read-out: dose of full inhibition
Text: Mainly this resistant species causes the disease called "candidiasis" which is quite wide-spread and very difficult to influence.

[2] = 30 h, read-out: MIC values of the individual tests

Row | Structure (SMILES) | MIC (Candida albicans; [2]) [µg/mL] | also measured
1 | C[Si](C)(C)OC(Cn1cncn1)(Cn1cncn1)c1ccc(F)cc1F [Example 1, 2-(2,4-Difluorophenyl)-1,3-bis(1,2,4-triazol-1-yl)-2-(trimethylsilyloxy)propane] | 150 (≈ 396 µM) | effectiveness against Candida albicans compared with the active ingredient of fluconazole (Candida albicans; factor missing in the printed text): times more effective
2 | C[Si](C)(C)OC(Cn1ccnc1)(Cn1cncn1)c1ccc(F)cc1F (stereo not shown) [Example 3, 1-(Imidazol-1-yl)-2-(2,4-difluorophenyl)-3-(1,2,4-triazol-1-yl)-2-(trimethylsilyloxy) propane] | 150 (≈ 397 µM) | 
3 | C[Si](C)(C)OC(CCl)(Cn1cncn1)c1ccc(F)cc1F (stereo not shown) [Example 5, 1-Chloro-2-(2,4-difluorophenyl)-3-(1,2,4-triazol-1-yl)-2-(trimethylsilyloxy) propane] | 9 (≈ 26 µM) | 
4 | CC(Cn1cncn1)(O[Si](C)(C)C)c1ccc(F)cc1F (stereo not shown) [Example 6, 2-(2,4-Difluorophenyl)-3-(1,2,4-triazol-1-yl)-2-(trimethylsilyloxy)propane] | 150 (≈ 482 µM) | 
5 | C[Si](C)(C)OC(CCl)(Cn1ccnc1)c1ccc(F)cc1F (stereo not shown) [Example 8, 1-Chloro-2-(2,4-difluorophenyl)-3-(imidazol-1-yl)-2-(trimethylsilyloxy)propane] | 19 (≈ 55.1 µM) | 
6 | OC(Cn1cncn1)(Cn1cncn1)c1ccc(F)cc1F [fluconazole, 2-(2,4-difluorophenyl)-1,3-bis(1,2,4-triazol-1-yl)propane-2-ol, reference compound] | 2500 (≈ 8160 µM) | effect against Candida albicans (in words) (Candida albicans): relatively weak effect; MIC (Candida albicans; in vitro, read-out: dose of full inhibition): 2500 µg/mL (≈ 8160 µM); MIC [1]: 0.1 to 10 µg/mL (≈ 0.327 to 32.7 µM)
